Data on 1 molecule can be found in patent US9604974B2, “Compounds as modulator of JAK-STAT pathway, methods and applications thereof” (UNIVERSITY OF MYSORE, priority 2015, dated 2017).

Test [1] concerns HepG2 cells. Nature of the test: MTT anti-proliferative assay, HepG2. As to conditions: Homo sapiens. Type of test: cell-based. The protocol: (§1) The anti-proliferative activity of Formula I compounds are studied on HepG2 cells using MTT assay. Briefly, the cells (2.5×10^4/ml) are incubated in triplicate in a 96-well plate in the presence or absence of different concentrations of compounds in a final volume of 0.2 ml up to 72 hours at 37° C. Thereafter, 20 μl MTT solution (5 mg/ml in PBS) is added to each well. After 2 hours of incubation at 37° C., 0.1 ml lysis buffer (20% SDS, 50% dimethyl-formamide) is added; incubation is continued overnight at 37° C.; and the optical density (OD) at 570 nm is measured by Tecan plate reader.
A general note: Formazan colour is commonly taken as a measure of viable cells.

Test [2] has as its system DU145 (prostrate cancer cell line). The experiment in a line: MTT anti-proliferative assay, DU145. The class given is cell-based. The following applies: Homo sapiens, DU-145. The method, then: as §1
Additionally, Compound 1 is tested on a panel of six cell lines including Hep3B, PLC/PRF5, AGS (gastric cancer cell line), DU145 (prostrate cancer cell line), MDA MB231 (breast cancer cell line) and CAL27 (head and neck cancer cell line) cells.

Test [3] has as its system STAT3 mediated transcription (α2-M promoter). Nature of the test: α2-macroglobulin promoter luciferase reporter assay. As to conditions: HepG2, versus DMSO control. The class given is cell-based, human. The protocol:
Increased STAT3 activity is known to stimulate oncogenicity of hepatocellular carcinoma. Therefore, evaluation of the level of phosphorylated STAT3 (Y705) in HepG2 cells is carried out with siRNA-mediated deletion of STAT3 transcripts and/or exposure to CIMO, using Western Blot analysis. Experiments related to transient-transfection of STAT3 siRNA in HepG2 cells and STAT3 mediated Transcription activity are performed wherein 60-70% confluent of cells in a 6-well plate are transfected using FuGENE6 (Roche Molecular Biochemicals, Indianapolis, USA) transfection reagent. Luciferase assay is performed using Dual Luciferase Assay Kit (Promega Corp, Singapore). Transfections are carried out in triplicate using 1 μg of the appropriate α-2 macroglobulin luciferase reporter plasmid and empty vector per transfection along with 0.2 μg of Renilla expression plasmid as control for transfection efficiency. Luciferase activities are assayed 48 hours after transfection using the dual Luciferase Assay System (Promega Corp, Singapore)
In addition, assessment of STAT3 mediated transcriptional activity using an α2-macroglobulin (α2-M) promoter in HepG2 cells with either siRNA-mediated depletion of STAT3 expression or on exposure to CIMO is carried out as described above (FIG. 3B).

For test [4], the system named is HepG2 cells. Nature of the test: Matrigel invasion assay. Type of test: cell-based, human. As to conditions: 5 μMol/L CIMO, presence and absence of CXCL12. The method, then:
FIG. 5 depicts inhibition of cell migration by Compound 1 (CIMO) [A]. 70 μl HepG2 cells (5×10^5/mL) are seeded into each compartments of culture insert and insert is removed after about 12 hours. Width of the wound is measured initially and incubation is carried out with and without CIMO (5 μM, for about 8 hours) and CXCL12 (100 ng/mL, for about 24 hours). [B] Inhibition of cell invasion by Compound 1 (CIMO). HepG2 (2×10^5) cells are seeded in the top chamber of BD BioCoat™ Matrigel™. After pre-incubation with or without 5 μMol/L CIMO for about 8 hours, transwell chambers are placed into the wells of a 24-well plate which contains either only basal medium or basal medium with CXCL12 (100 ng/mL) for about 24 hours. After incubation, the chambers are assessed for cell invasion by staining with crystal violet.
In case of the invasion assay, the said assay is performed wherein BD (Biocoat™ Matrigel™) Invasion chamber with 8 μm pores in the light-tight polyethylene terephthalate membrane is taken and is coated with a reconstituted basement membrane gel (BD Biosciences). 2×10^5 cells are suspended in serum-free DMEM and seeded into the Matrigel Transwell chambers. The cells are incubated with CIMO for about 8 hours. […] The invading cells are then counted in five randomly selected areas under microscopic observation.

The subject of test [5] is phospho-STAT3, Ki-67, cleaved caspase-3. The experiment in a line: Immunohistochemistry of tumor tissues. Type of test: in vivo, athymic nu/nu female mice. As to conditions: treated vs. control group. The method, then:
The effect of CIMO on constitutive phospho-STAT3 levels in HCC tumor tissues is further analyzed by immunohistochemical analysis. Solid tumors from control and drug-treated groups are fixed with 10% phosphate buffered formalin, processed, and embedded in paraffin. The sections are cut to 5 micron size and deparafinized in xylene, dehydrated in graded alcohol, and finally hydrated in water. Antigen retrieval is conducted by boiling the slide in 10 mM sodium citrate (pH 6.0) for about 30 minutes. Immunohistochemistry is conducted following the manufacturer's instructions (Dako LSAB Kit). Briefly, endogenous peroxidases are quenched with 3% hydrogen peroxide. Sections are incubated with primary antibodies for about 2 hours as follows: anti-pSTAT3, anti-Ki-67 and anti-caspase-3 (each at 1:100 dilutions). The slides are subsequently washed several times in TBS with 0.1% Tween-20 and are incubated with biotinylated linker for about 45 minutes, provided in the LSAB Kit according to the manufacturer's instructions. Immunoreactive species are detected using 3, 3′-diaminobenzidine tetrahydrochloride as a substrate. The sections are counterstained with Gill's hematoxylin and mounted under glass cover slips. Images are taken using an Olympus BX51 microscope (magnification, 40×). Quantitative analysis of immunohistochemistry images are done by visual scores between the control and treated images. In this expression quantitation technique, each image is divided into four parts and each part is individually quantitated for the biomarker expression. A cell scored as positive refers to the presence of brown staining (peroxidase) in any part of the studied tissue. A negative cell scored refers to no staining or weak staining.

As usually defined, the IC50 is the midpoint of a concentration-inhibition curve. High values mean weaker potency in that assay, low ones greater potency in that assay. In the test on HepG2 cells [1] (HepG2, Table 2), `COc1ccc(C2CNC(c3cn(Cc4ccc(-c5ccccc5C#N)cc4)c4ccccc34)OC23CCCCC3)cc1` (centres unmarked) [Compound 1] registered an IC50 of 7.3 µM. The molecule also came in with an IC50 in the test on HepG2 cells [1] (HepG2 cells after 72 hours, MTT) of 7.3 µM. Moreover, the midpoint of inhibition in test [2], the IC50, lay at 38.8 µM. Besides, the α2-M promoter activity entry in test [3] was “decreased α2-M promoter activity”. Moreover, the “inhibition of HepG2 cells motility (invasion)” value in the test on HepG2 cells [4] is listed as “more than 50%”. In addition, in test [5], the “constitutive STAT3 activation in tumor tissues” value is recorded as “significantly inhibits”, the “expression of Ki-67 in tumor tissues” value was “downregulated” and the “expression of cleaved caspase-3 in tumor tissues” value is given as “significantly increased”.
